According to US20160355483A1, “COMPOUND BINDING TO PPARG BUT NOT ACTING AS PROMOTER AND PHARMACEUTICAL COMPOSITION FOR TREATING PPARG-RELATED DISEASES CONTAINING SAME AS ACTIVE INGREDIENT” (Hyundai Pharm Co., Ltd., priority 2014, published 2016):

Each compound was assayed against T1, PPARG (peroxisome proliferator activated receptor-gamma), GST-PPARG-LBD (Homo sapiens, UniProt P37231) (assay: LanthaScreen TR-FRET PPARG Competitive Binding Assay). Details: degree of binding activity.
T1 construct: 15 μL of 5 nM GST-PPARG-LBD and 5 nM Tb-GST-antibody were added; purchased Invitrogen PV4894
T1 sequence (P37231 238-503 limits assumed): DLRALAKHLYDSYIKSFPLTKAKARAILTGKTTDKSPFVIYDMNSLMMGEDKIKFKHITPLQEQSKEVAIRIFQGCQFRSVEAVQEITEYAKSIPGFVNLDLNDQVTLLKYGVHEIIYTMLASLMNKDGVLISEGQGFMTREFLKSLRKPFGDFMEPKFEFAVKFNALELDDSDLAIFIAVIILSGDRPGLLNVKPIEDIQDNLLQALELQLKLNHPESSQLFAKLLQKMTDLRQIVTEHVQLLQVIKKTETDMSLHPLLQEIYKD
Design: key: “+” indicates the degree of the binding activity, and as the number of “+” increases, the binding activity is stronger; ++: “+” indicates the degree of the binding activity, and as the number of “+” increases, the binding activity is stronger; +++: “+” indicates the degree of the binding activity, and as the number of “+” increases, the binding activity is stronger; ++++: “+” indicates the degree of the binding activity, and as the number of “+” increases, the binding activity is stronger
Method in brief: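 GST-tagged human PPARG LBD in a TR-FRET competitive binding kit, 1 h at room temperature. Read-out is the 518/488 nm emission ratio (340 nm excitation); activity = 100% − compound ratio/vehicle ratio, compared with rosiglitazone.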

| SMILES | Binding assay (1 μLM) |
| --- | --- |
| C[C@H](NC(=O)c1ccc2c(c1)OCCN2Cc1ccc(-c2ccccc2C(=O)O)cc1)c1cccc(F)c1 [Example 84, (S)-4′-((7-((1-(3-fluorophenyl)ethyl)carbamoyl)-2H-benzo[b][1,4]oxazine-4(3H)-yl)methyl)-[1,1′-biphenyl]-2-carboxylic acid] | ++ |
| C[C@H](NC(=O)c1ccc2c(c1)OCCN2Cc1ccc(-c2ccccc2C(=O)O)cc1)c1cccc(OC(F)(F)F)c1 [Example 85, (S)-4′-((7-((1-(3-(trifluoromethoxy)phenyl)ethyl)carbamoyl)-2H-benzo[b][1,4]oxazine-4(3H)-yl)methyl)-[1,1′-biphenyl]-2-carboxylic acid] | +++ |
| C[C@H](NC(=O)c1ccc2c(c1)OCCN2Cc1ccc(-c2ccccc2C(=O)O)cc1)c1cccc(C(F)(F)F)c1 [Example 86, (S)-4′-((7-((1-(3-(trifluoromethyl)phenyl)ethyl)carbamoyl)-2H-benzo[b][1,4]oxazine-4(3H)-yl)methyl)-[1,1′-biphenyl]-2-carboxylic acid] | +++ |
| C[C@H](NC(=O)c1ccc2c(c1)OCCN2Cc1ccc(-c2ccccc2C(=O)O)cc1)c1ccc2ccccc2c1 [Example 87, (S)-4′-((7-((1-(naphthalene-2-yl)ethyl)carbamoyl)-2H-benzo[b][1,4]oxazine-4(3H)-yl)methyl)-[1,1′-biphenyl]-2-carboxylic acid] | ++++ |
| O=C(NCc1ccccn1)c1ccc2c(c1)OCCN2Cc1ccc(-c2ccccc2C(=O)O)cc1 [Example 88, 4′-((7-((pyridine-2-ylmethyl)carbamoyl)-2H-benzo[b][1,4]oxazine-4(3H)-yl)methyl)-[1,1′-biphenyl]-2-carboxylic acid] | + |
| O=C(NCc1cccnc1)c1ccc2c(c1)OCCN2Cc1ccc(-c2ccccc2C(=O)O)cc1 [Example 89, 4′-((7-((pyridine-3-ylmethyl)carbamoyl)-2H-benzo[b][1,4]oxazine-4(3H)-yl)methyl)-[1,1′-biphenyl]-2-carboxylic acid] | + |
| O=C(NCc1ccncc1)c1ccc2c(c1)OCCN2Cc1ccc(-c2ccccc2C(=O)O)cc1 [Example 90, 4′-((7-((pyridine-4-ylmethyl)carbamoyl)-2H-benzo[b][1,4]oxazine-4(3H)-yl)methyl)-[1,1′-biphenyl]-2-carboxylic acid] | + |
| O=C(NCc1ccccc1)c1ccc2c(c1)OCCN2Cc1ccc(-c2ccccc2C(=O)O)cc1 [Example 91, 4′-((7-(benzylcarbamoyl)-2H-benzo[b][1,4]oxazine-4(3H)-yl)methyl)-[1,1′-biphenyl]-2-carboxylic acid] | +++ |
| O=C(NCc1ccccc1Br)c1ccc2c(c1)OCCN2Cc1ccc(-c2ccccc2C(=O)O)cc1 [Example 92, 4′-((7-((2-bromobenzyl)carbamoyl)-2H-benzo[b][1,4]oxazine-4(3H)-yl)methyl)-[1,1′-biphenyl]-2-carboxylic acid] | +++ |
| O=C(NCc1ccc2c(c1)OCCO2)c1ccc2c(c1)OCCN2Cc1ccc(-c2ccccc2C(=O)O)cc1 [Example 93, 4′-((7-(((2,3-dihydrobenzo[b][1,4]dioxin-6-yl)methyl)carbamoyl)-2H-benzo[b][1,4]oxazine-4(3H)-yl)methyl)-[1,1′-biphenyl]-2-carboxylic acid] | ++ |
| C[C@@H](NC(=O)c1ccc2c(c1)OCCN2Cc1ccc(-c2ccccc2C(N)=O)cc1)c1ccc(C#N)cc1 [Example 94, (R)-4-((2′-carbamoyl-[1,1′-biphenyl]-4-yl)methyl)-N-(1-(4-cyanophenyl)ethyl)-3,4-dihydro-2H-benzo[b][1,4]oxazine-7-carboxamide] | ++ |
